Measurements reported in paper PMC12718374, “Structural basis and evolutionary pathways of glycerol-1-phosphate transport in marine bacteria” (Proceedings of the National Academy of Sciences of the …, 2025).

Tests used:
[1] = tested on: Phaeobacter sp. MED193 ∆ugpB∆gpxB double mutant; assay: Growth on substrate as the sole carbon source, ∆ugpB∆gpxB double mutant; format: cell-based; conditions: 5 mM substrate
Experimental: (§1) Phaeobacter sp. MED193 and its mutant strains were routinely maintained on 1.5% (w/v) Difco marine broth 2216 agar with antibiotics as appropriate. To test the growth of Phaeobacter sp. MED193 on G1P/G3P, cells were first cultivated in 5 mL marine broth medium overnight at 30 °C with shaking at 150 rpm. A 1% (v/v) inoculum was then transferred to defined artificial seawater medium supplemented with 50 µM phosphate ([6]). After 24 h growth, 12.5 mL cultures were collected by centrifugation and inoculated into 100 mL artificial seawater medium. Subsequently, either G1P or G3P (purchased from Sigma-Aldrich, St. Louis, USA) was added to a final concentration of 5 mM as the sole C source. Cells (40 mL) were harvested after 48 h and used for proteomics.
The gpxBugpB double mutant was generated using a conjugation protocol as described previously ([35]). First, two homologous regions of an upstream and a downstream fragment flanking the gpxB gene were cloned into suicide plasmid pK18mobsacB, together with a spectinomycin (Spec) resistance cassette which was inserted in between the upstream and downstream fragments. The resulting plasmid was then mobilized into Phaeobacter sp. MED193 using E. coli S17.1 lambda pir and transconjugants selected on marine broth MB agar containing Spec (200 µg mL^−1). […] The same protocol was repeated to generate the gpxBugpB double mutant in the gpxB single mutant background, except that a Gentamycin (Gm) resistant cassette was inserted in between the upstream and downstream fragments of ugpB into pK18mobsacB. All primers, plasmids, and bacterial strains used are listed in SI Appendix, Table S6.

[2] = biological target: Phaeobacter sp. MED193 GpxB (MED193_19449) (Roseobacter sp. MED193, UniProt A3X5C8); assay: Microscale thermophoresis (MST) binding affinity assay, purified recombinant GpxB; conditions: 22 °C, 20 mM HEPES pH 7.4, 100 mM NaCl, recombinant GpxB of Phaeobacter sp. MED193
Experimental: (§2) The binding affinity of the purified proteins to G1P and other structurally related chemicals was measured using a Monolith NT.115 (NanoTemper Technologies, Munich, Germany). Proteins (160 nM) were labeled in assay buffer (PBS containing 0.05% (v/v) Tween-20) using the Protein Labelling Kit RED-Tris-NTA (NanoTemper Technologies). For binding assays, the buffer was replaced by 20 mM HEPES pH 7.4, 100 mM NaCl, 0.05% (v/v) Tween-20. Each chemical was prepared by serial dilution in the same assay buffer and mixed with the same volume of labeled protein (at a final concentration of 80 nM). The mixture was then loaded onto Monolith™ NT.115 Series capillaries (NanoTemper Technologies, Germany) and thermophoresis was measured at 22 °C using 60% excitation power and medium MST power. Data were analyzed using MO. Affinity Analysis v2.3 software (NanoTemper Technologies).
(§3) The full-length codon optimized GpxB (MED193_19449) of Phaeobacter sp. MED193 (WP_009811375.1), and four GpxB homologs (Marinobacter sp. DSM11874, MBB6025290.1; S. pseudonitzschiae DSM26824, WP_037914517.1; Sulfitobacter sp. EE-36, WP_005852758.1; S. geojensis sp. EhN01, WP_064222091.1) were chemically synthesized by Beijing Tsingke Biotech Co., Ltd. (China), and subcloned into pET-22b (Novagen, America) with a C-terminal His-tag. An N-terminal signal peptide truncated [residues 1−22 predicted by SignalP 5.0 Server ([36])] […]

[3] = tested on: GpxB^DSM11874 alanine mutants (Tyr138, His199, Thr247, Arg223); assay: MST binding affinity assay of site-directed alanine mutants of GpxB^DSM11874; set-up: species or system Marinobacter sp. DSM11874; conditions: alanine mutants of Tyr138, His199, Thr247, Arg223 versus wild-type GpxB^DSM11874
Experimental: as §2, §3

[4] = biological target: Phaeobacter sp. MED193 UgpB (MED193_07903) (Phaeobacter sp. MED193 (Roseobacter sp. MED193), UniProt Z9VP90JAR2); assay: MST binding affinity assay, purified recombinant UgpB; conditions: 22 °C, 20 mM HEPES pH 7.4, 100 mM NaCl, recombinant UgpB of Phaeobacter sp. MED193
Experimental: as §2, §3

[5] = biological target: GpxB from Sulfitobacter geojensis EhN01; assay: MST binding affinity assay, purified GpxB from Sulfitobacter geojensis EhN01; conditions: GpxB of Sulfitobacter geojensis EhN01
Experimental: as §2, §3

[6] = biological target: GpxB from Sulfitobacter sp. EE-36; assay: MST binding affinity assay, purified GpxB from Sulfitobacter sp. EE-36; conditions: GpxB of Sulfitobacter sp. EE-36
Experimental: as §2, §3

[7] = biological target: GpxB from Sulfitobacter pseudonitzschiae DSM26824; assay: MST binding affinity assay, purified GpxB from Sulfitobacter pseudonitzschiae DSM26824; conditions: GpxB of Sulfitobacter pseudonitzschiae DSM26824
Experimental: as §2, §3

[8] = biological target: GpxB^DSM11874 (GpxB homolog from Marinobacter sp. DSM11874) (Marinobacter sp. DSM 11874, UniProt Z9YUV0DEE1); assay: MST binding affinity assay, purified GpxB^DSM11874; conditions: 22 °C, GpxB^DSM11874 of Marinobacter sp. DSM11874
Experimental: as §2, §3

[9] = tested on: Phaeobacter sp. MED193; assay: Growth on substrate as the sole C source, wild type; format: cell-based; conditions: defined artificial seawater medium, 5 mM substrate
Experimental: as §1

Sequence of GpxB^DSM11874 (GpxB homolog from Marinobacter sp. DSM11874) (Z9YUV0DEE1 21-315 limits assumed): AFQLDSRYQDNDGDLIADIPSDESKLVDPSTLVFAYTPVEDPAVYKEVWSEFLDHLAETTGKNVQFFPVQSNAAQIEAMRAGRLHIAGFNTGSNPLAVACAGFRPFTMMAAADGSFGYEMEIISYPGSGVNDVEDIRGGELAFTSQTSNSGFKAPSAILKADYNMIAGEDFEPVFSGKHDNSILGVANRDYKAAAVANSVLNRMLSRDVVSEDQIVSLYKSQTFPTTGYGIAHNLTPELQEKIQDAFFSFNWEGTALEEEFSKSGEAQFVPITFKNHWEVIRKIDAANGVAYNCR
Sequence of Phaeobacter sp. MED193 GpxB (MED193_19449) (A3X5C8 1-326 limits assumed): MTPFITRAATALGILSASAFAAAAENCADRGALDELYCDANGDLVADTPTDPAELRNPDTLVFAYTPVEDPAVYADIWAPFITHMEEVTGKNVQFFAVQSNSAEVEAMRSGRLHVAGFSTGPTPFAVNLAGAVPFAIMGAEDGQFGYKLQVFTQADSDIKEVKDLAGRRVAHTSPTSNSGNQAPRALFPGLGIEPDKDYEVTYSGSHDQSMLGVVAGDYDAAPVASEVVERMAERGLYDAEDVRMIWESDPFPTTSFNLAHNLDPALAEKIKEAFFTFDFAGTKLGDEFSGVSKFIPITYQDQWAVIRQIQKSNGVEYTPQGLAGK
Sequence of Phaeobacter sp. MED193 UgpB (MED193_07903) (Z9VP90JAR2 43-453 limits assumed): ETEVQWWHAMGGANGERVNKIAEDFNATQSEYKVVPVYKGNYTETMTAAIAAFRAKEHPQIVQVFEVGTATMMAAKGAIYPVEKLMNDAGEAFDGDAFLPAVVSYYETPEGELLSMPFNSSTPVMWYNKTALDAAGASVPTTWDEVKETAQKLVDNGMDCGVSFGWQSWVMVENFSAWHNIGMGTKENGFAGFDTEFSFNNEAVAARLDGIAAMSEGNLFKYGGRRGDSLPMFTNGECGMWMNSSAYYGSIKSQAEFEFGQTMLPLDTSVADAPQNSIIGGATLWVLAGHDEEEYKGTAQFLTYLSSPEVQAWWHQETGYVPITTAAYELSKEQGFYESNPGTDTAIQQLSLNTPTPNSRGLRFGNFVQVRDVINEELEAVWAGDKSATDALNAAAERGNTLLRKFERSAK

In the case of O=P(O)(O)OC[C@@H](O)CO [G1P, sn-glycerol-1-phosphate], the “growth on the substance as the sole carbon source” value (“growth … as the sole carbon source” for short) [1] is reported as “unable to grow”, the Kd [2] is reported as 2480 ± 140 nM and the “reduction in binding affinity of alanine mutants” value [3] is reported as 10- to 100 fold. For the same molecule, the Kd [4] was 2360 ± 350 nM, the binding affinity [5] was “low-µM” and the binding affinity [6] was “low-µM”. The binding affinity [7] was “low-µM”, the Kd [8] was 1720 ± 280 nM and the “growth on the substance as the sole C source” value (“growth … as the sole C source” for short) [9] was “grows”.
For OCC(O)CO [glycerol], the “growth … as the sole carbon source” value [1] was “unaffected” and the “growth … as the sole C source” value [9] was “grows”.
O=P(O)(O)OC[C@H](O)CO [G3P, sn-glycerol-3-phosphate] was tested, and the “growth … as the sole carbon source” value [1] was “unable to grow”, the Kd [2] was 1020 ± 140 nM and the Kd [4] was 800 ± 260 nM. For the same molecule, the binding affinity [5] was “low-µM”, the binding affinity [6] was “low-µM” and the binding affinity [7] was “low-µM”. For the same molecule, the Kd [8] was 1060 ± 150 nM and the “growth … as the sole C source” value [9] was “grows”.
